ChEMBL document CHEMBL1201862, “PubChem BioAssay data set” (2004)
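Briefly, cells in 96-well plates were exposed to five compound concentrations for 48 h, and endpoints were estimated by linear interpolation. GI50 marks 50% less growth.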 Active and inactive are the calls of the source. Cut-off read from the data, not from the text of the source: active = GI50 up to about 1.1 µM and inactive = higher.

Key:
Assay in all cases: DTP human tumour cell line panel, 48 h
DMS-114 = tested on: DMS-114
DLD-1 = tested on: DLD-1
M19-MEL = tested on: M19-MEL
LXFL 529 = tested on: LXFL 529
SNB-78 = tested on: SNB-78
HOP-18 = tested on: HOP-18
DMS-273 = tested on: DMS-273
RXF 631 = tested on: RXF 631
XF498 = tested on: XF498

Measured: GI50

CCN(CC)C(=S)N/N=C(\C)c1ccccc1O
inactive: DMS-114 11.9 µM | DLD-1 17.8 µM | M19-MEL 39.9 µM | LXFL 529 13.5 µM | SNB-78 > 100 µM | HOP-18 26.2 µM | DMS-273 12.9 µM | RXF 631 35.2 µM

COC(=O)C(=O)C(C#N)c1ccc(Cl)c(Cl)c1 (stereo not drawn)
inactive: XF498 > 100 µM | DLD-1 > 100 µM | M19-MEL > 100 µM | LXFL 529 > 100 µM | SNB-78 > 100 µM | DMS-273 > 100 µM | RXF 631 > 100 µM

NC(=O)c1ncn(C2OC(CO)C(O)C2O)c1O (stereo not drawn)
inactive: DMS-114 > 100 µM | XF498 > 100 µM | M19-MEL > 100 µM | LXFL 529 > 100 µM | SNB-78 > 100 µM | HOP-18 53.7 µM | RXF 631 > 100 µM

CC(=O)NNc1nc(C)c(C(=O)/C=C/c2ccccc2Cl)s1
inactive: DMS-114 > 100 µM | DLD-1 > 100 µM | M19-MEL > 100 µM | SNB-78 > 100 µM | HOP-18 > 100 µM | DMS-273 > 100 µM | RXF 631 > 100 µM

Nc1ccc(C(=O)N/C(=C\C=C\c2ccco2)c2nc3c4c(ccc3[nH]2)C(=O)c2ccccc2C4=O)cc1
inactive: DMS-114 18.5 µM | XF498 > 100 µM | DLD-1 13.3 µM | M19-MEL 79.6 µM | LXFL 529 49.1 µM | SNB-78 64.6 µM | HOP-18 11.4 µM | DMS-273 29.5 µM | RXF 631 32.8 µM

CC(C)c1cccc(C(C)C)c1NC(=O)C(=O)Cc1nc2ccc([N+](=O)[O-])cc2nc1O
inactive: DMS-114 10.5 µM | DLD-1 > 100 µM | M19-MEL 80.9 µM | LXFL 529 28.2 µM | HOP-18 > 100 µM | DMS-273 44.4 µM | RXF 631 40.8 µM

NC(CCCCN/C=C1/N=C(c2ccccc2)OC1=O)C(=O)O (stereo not drawn)
inactive: DMS-114 > 100 µM | XF498 > 100 µM | DLD-1 > 100 µM | M19-MEL > 100 µM | LXFL 529 > 100 µM | SNB-78 > 100 µM | DMS-273 > 100 µM

Cc1ccc2nc3c(C)cc(=O)cc-3sc2c1
inactive: DMS-114 17.5 µM | DLD-1 30.3 µM | M19-MEL 15.9 µM | LXFL 529 17.9 µM | SNB-78 32.5 µM | HOP-18 56.6 µM | DMS-273 27.9 µM | RXF 631 31.2 µM

O=C(N/C(=C\c1ccc([N+](=O)[O-])cc1)c1nc2c(O)nc(S)nc2[nH]1)c1ccccc1
inactive: DMS-114 77.3 µM | XF498 > 100 µM | DLD-1 53.7 µM | M19-MEL > 100 µM | LXFL 529 65.2 µM | SNB-78 > 100 µM

O=c1c2ccccc2c(=O)n2n1-c1cccc(c1)CSSCc1cccc-2c1
inactive: DMS-114 > 10 µM | XF498 62.2 µM | DLD-1 > 10 µM | M19-MEL > 10 µM | LXFL 529 > 10 µM | SNB-78 62.1 µM | HOP-18 > 10 µM | DMS-273 > 10 µM | RXF 631 > 10 µM

c1ccc(C2=NN(c3ccccc3)C3(S2)SC(c2ccccc2)(c2ccccc2)c2ccccc23)cc1 (stereo not drawn)
inactive: DMS-114 > 100 µM | XF498 > 100 µM | DLD-1 > 100 µM | M19-MEL > 100 µM | LXFL 529 > 100 µM | SNB-78 > 100 µM | DMS-273 > 100 µM

O=C(O)C1=C(C(=O)Nc2ccccc2)C2C=CC1C2 (stereo not drawn)
inactive: DMS-114 > 100 µM | XF498 > 100 µM | DLD-1 > 100 µM | M19-MEL > 100 µM | LXFL 529 > 100 µM | SNB-78 > 100 µM | HOP-18 > 100 µM | DMS-273 > 100 µM

O=C1CCCC2=C(N1)C(=O)C=CC2=O
inactive: DMS-114 > 41.7 µM | XF498 > 100 µM | DLD-1 > 53.2 µM | M19-MEL > 100 µM | LXFL 529 > 58.7 µM | SNB-78 > 100 µM | HOP-18 > 100 µM | DMS-273 > 100 µM | RXF 631 > 100 µM

Cc1ccc(NC(=O)c2nc(S)nc(N)c2-c2ccccc2C)cc1C
inactive: DMS-114 > 100 µM | XF498 > 100 µM | DLD-1 > 100 µM | M19-MEL > 100 µM | LXFL 529 > 100 µM | SNB-78 > 100 µM | HOP-18 > 100 µM | DMS-273 > 100 µM

O=C1C(c2ccccc2)=C(c2ccccc2)C(c2ccc(Cc3ccc(C4=C(c5ccccc5)C(=O)C(c5ccccc5)=C4c4ccccc4)cc3)cc2)=C1c1ccccc1
inactive: DMS-114 > 100 µM | XF498 > 100 µM | DLD-1 > 100 µM | M19-MEL > 100 µM | SNB-78 > 100 µM | HOP-18 > 100 µM | DMS-273 > 100 µM

CCCCCCCCCCCCOC(=N)N1CCOCC1
inactive: DMS-114 6.7 µM | XF498 13.3 µM | DLD-1 3.3 µM | M19-MEL 5.22 µM | LXFL 529 4.06 µM | SNB-78 6.59 µM | HOP-18 2 µM | DMS-273 9.55 µM | RXF 631 8.18 µM
